US20210308077A1, “COMBINATIONS INCLUDING BETA-ADRENORECEPTOR AGONISTS FOR TREATMENT OF PARKINSON`S DISEASE AND MOVEMENT DISORDERS” (The Brigham and Women`s Hospital, Inc., priority 2017, published 2021)

Experiments:
[1] = test system: α-synuclein protein; assay: α-synuclein protein in rat primary cortical neurons (ELISA); format: cell-based; conditions: metaproterenol 5 μM, clenbuterol 20 μM, salbutamol 10 μM, 72 hours
Procedure: Primary cortical cultures were generated from E18 Sprague-Dawley rat embryos. The cortical region was dissected out in Hank's Balanced Salt Solution buffered with Hepes and dissociated with 0.125% trypsin (Invitrogen) for 17 min at 37 ° C., followed by trituration. Dissociated cells were plated at a density of 5×10^5 cells/well or 2.5×10^5 cells/well in 12-well or 24-well plates, respectively precoated with poly-D lysine (100 μg/mL). The cells were cultured in Neurobasal medium with B-27 supplement (Invitrogen) and glutamax and gentamycin. Half of the medium was changed every 4 days. Cortical neurons were treated with β2AR agonists 10 days post plating. They were then harvested 48 hours post-treatment for mRNA extraction and 72 hours post-treatment for protein extraction.
Protein lysis buffer containing 320 mM sucrose, 5 mM NaF, 1 mM Na3VO4, 10 mM Tris (pH 7.4), 1 mM EGTA, and 1 mM EDTA was used for mice brain tissue lysis. 100 μL of cold extraction buffer was added to each sample and homogenized in a dounce homogenizer. […] Total protein concentrations were determined by BCA assay (Thermo Scientific) according to the manufacturer's instructions. Total α-synuclein was quantified using an α-synuclein-specific sandwich ELISA.
An α-synuclein-specific Meso Scale Discovery (MSD) ELISA assay (described in Ref. (11)) was utilized for endogenous α-synuclein protein measurement. […] After samples were emptied and plate washed 3 times with TBS-T, sulfo-tagged SOY1 mAb (detection Ab) (generated using Sulfo-Tag-NHS-Ester (MSD) diluted in blocking buffer (6.7 ng/μl), was added to the plate (30 μl volumes/well) and shaken for 1 hour at room temperature. Following 3 washes, MSD Read (2×, diluted in ultrapure water) buffer was added and the plates were immediately measured using a MSD Sector 2400 imager. For confirmatory studies, an second α-synuclein-specific ELISA implementation was used employing a different, extensively published anti-α-synuclein detection antibody (Syn-1 mAb) and a different anti-α-synuclein capture antibody (1H9, courtesy Dr. Selkoe).

[2] = test system: α-synuclein protein and SNCA mRNA; assay: SNCA expression in SNCA-triplication iPSC-derived neuronal progenitor cells; format: cell-based, human; conditions: SNCA-triplication NPCs, 20 μM
Procedure: The derivation and culture of the WIBR-IPS-αSyn^TRPLline has been described previously (27).
To initiate differentiation, iPSC colonies were pretreated for 30-60 min with 5 μM Y-27632, a ROCK inhibitor (Calbiochem). They were single cell-dissociated after 5-10 minute exposure to accutase (StemProAccutase; Life Technologies) and then re-suspended in neural base (NB) medium, which is DMEM/F12 (Gibco/Life Technologies) supplemented with 0.5% N2 and 1% B27 (Life Technologies). […]
Total RNA from flash-frozen mice brain tissue, rodent primary cells, human neuroblastoma cells and iPSC-derived neuronal cells was isolated using TRIzol® (Life Technologies) following the manufacturer's protocol. RNA concentration was measured using NanoDrop spectrophotometer (Thermo Fisher Scientific, Wilmington, De.). […] Quantitative PCR was performed using TaqMan Universal PCR Master Mix (Applied Biosystems) on an ABI 7900HT instrument (Applied Biosystems) as described previously (31). […] Expression values were analyzed using the comparative threshold cycle method (31). […]

Structure (SMILES) | α-synuclein protein levels [1] | SNCA mRNA expression ([2]; 3 days, P<0.005) | endogenous α-synuclein protein ([2]; 4 days, P<0.05)
CC(C)(C)NCC(O)c1ccc(O)c(CO)c1 (stereo not shown) [Salbutamol, salbutamol] | significantly, but modestly, reduced |  | 
CC(C)(C)NCC(O)c1cc(Cl)c(N)c(Cl)c1 (stereo not shown) [clenbuterol] | significantly, but modestly, reduced | significantly reduced | significantly reduced
